For assay [1], the target named is T1, Fatty-acid amide hydrolase 1 (Homo sapiens, UniProt O00519).
T1 sequence (O00519 whole entry): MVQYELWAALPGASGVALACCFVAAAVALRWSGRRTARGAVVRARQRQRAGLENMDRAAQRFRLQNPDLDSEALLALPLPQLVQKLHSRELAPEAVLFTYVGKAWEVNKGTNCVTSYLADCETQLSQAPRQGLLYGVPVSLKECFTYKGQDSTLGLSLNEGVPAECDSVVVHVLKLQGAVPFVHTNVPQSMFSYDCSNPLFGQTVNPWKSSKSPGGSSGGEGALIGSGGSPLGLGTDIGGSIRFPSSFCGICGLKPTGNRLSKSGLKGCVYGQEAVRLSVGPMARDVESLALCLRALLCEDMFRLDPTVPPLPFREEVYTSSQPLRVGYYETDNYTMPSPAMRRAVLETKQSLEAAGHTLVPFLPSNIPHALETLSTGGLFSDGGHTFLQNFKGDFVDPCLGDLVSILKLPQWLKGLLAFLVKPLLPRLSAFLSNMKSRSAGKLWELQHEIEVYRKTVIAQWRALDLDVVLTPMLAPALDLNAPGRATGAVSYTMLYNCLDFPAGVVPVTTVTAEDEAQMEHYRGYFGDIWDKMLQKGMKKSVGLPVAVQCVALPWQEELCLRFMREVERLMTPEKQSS
The assay can be described thus: Reversible inhibition of full length human FAAH assessed as inhibition of 3[H]-anandamide hydrolysis preincubated for 3 hrs measured after 15 mins post substrate addition by cell-based assay.

Assay [2] concerns the target T1, Fatty-acid amide hydrolase 1. In words: Inhibition of human FAAH expressed in HEK293 cells using arachadonyl 7-amino 4-methyl coumarin amide as substrate by fluorimetric assay. Type of assay: cell-based.
Assay [3] in a line: Inhibition of guinea pig brain FAAH. More on the design: species or system Cavia porcellus.
Assay [4] has as its target T2, Fatty-acid amide hydrolase 1 (Rattus norvegicus, UniProt P97612).
T2 sequence (P97612 whole entry): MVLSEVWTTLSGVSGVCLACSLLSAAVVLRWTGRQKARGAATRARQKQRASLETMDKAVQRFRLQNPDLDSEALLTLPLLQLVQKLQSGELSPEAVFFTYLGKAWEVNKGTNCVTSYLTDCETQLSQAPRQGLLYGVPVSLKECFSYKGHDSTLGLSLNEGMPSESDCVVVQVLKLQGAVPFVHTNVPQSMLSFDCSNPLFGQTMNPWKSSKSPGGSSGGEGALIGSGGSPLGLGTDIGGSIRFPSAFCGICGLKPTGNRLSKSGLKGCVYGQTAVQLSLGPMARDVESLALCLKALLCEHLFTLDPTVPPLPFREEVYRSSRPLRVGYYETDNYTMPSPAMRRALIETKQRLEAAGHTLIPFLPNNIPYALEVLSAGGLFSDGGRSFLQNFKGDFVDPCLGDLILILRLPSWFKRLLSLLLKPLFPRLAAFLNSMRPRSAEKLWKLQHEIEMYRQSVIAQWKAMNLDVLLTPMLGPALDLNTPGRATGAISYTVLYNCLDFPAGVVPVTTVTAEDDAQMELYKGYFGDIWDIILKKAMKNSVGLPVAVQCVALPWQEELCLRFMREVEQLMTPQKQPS
In words: Inhibition of rat FAAH expressed in HEK293 cells using arachadonyl 7-amino 4-methyl coumarin amide as substrate by fluorimetric assay. Type of assay: cell-based.

Assay [5] can be described thus: Inhibition of rabbit brain FAAH. On the set-up: species or system Oryctolagus cuniculus.

Each structure is given as a SMILES string. Where only a bound is given, the exact number is not on record here.

In general, IC50 refers to the concentration that inhibits the measured activity by half.

As to `CCCCCCCC/C=C\CCCCCCCC(=O)C(F)(F)F`, the IC50 in assay [1] was determined as 187 nM.
In assay [2], `NC(=O)c1cccc(-c2ccc3oc(NC4CCCCC4)nc3c2)c1` yielded an IC50 of over 1000 nM.
As for `Cn1ccc2cc(-c3ccc4oc(Nc5cccnc5)nc4c3)ccc21`, in assay [2], inhibition was half-maximal at 226 nM (IC50).
Molecule `Cn1ccc2cc(-c3ccc4oc(Cc5ccccc5)nc4c3)ccc21` came in with an IC50 in assay [2] of 488 nM.
As to `N#Cc1cc(-c2ccc3oc(NC4CCCCC4)nc3c2)ccc1O`, it took 54 nM to reach half-maximal inhibition in assay [2] (IC50).
Turning to `Cn1ccc2cc(-c3ccc4nc(N5Cc6ccccc6C5)oc4c3)ccc21`, the IC50 in assay [2] was over 1000 nM.
Turning to `Cn1ccc2cc(-c3ccc4oc(N5Cc6cccnc6C5)nc4c3)ccc21`, in assay [2], the IC50 worked out at 211 nM.
Still for that read-out and setting: the same measure for `Cn1ccc2cc(-c3ccc4oc(N5CCCC5)nc4c3)ccc21`: 674 nM; for `c1cc2cc(-c3ccc4oc(NC5CCCCC5)nc4c3)cnc2[nH]1`: over 1000 nM.
Consider `Cn1ccc2cc(-c3ccc4oc(Nc5ccncc5)nc4c3)ccc21`, for which the IC50 in assay [2] was over 1000 nM.
For `CCn1ccc2cc(-c3ccc4oc(Nc5ccccc5)nc4c3)ccc21`, the IC50 came out at 424 nM in assay [3]; 92 nM in assay [1]; 586 nM in assay [4]; 18 nM in assay [2]; 98 nM in assay [5].
As to `COCc1ccc(-c2ccc3oc(N4Cc5ccccc5C4)nc3c2)cc1`, half-maximal inhibition in assay [2] (IC50) required 10 nM.
Consider `CNc1nc2cc(-c3ccc4c(ccn4C)c3)ccc2o1`, for which, in assay [2], the IC50 is over 1000 nM.
With `Cn1ccc2cc(-c3ccc4oc(Nc5ccccc5)nc4c3)ccc21`, the midpoint of inhibition in assay [2], the IC50, lay at 48 nM.
On the same count and under the same terms, the same measure for `COCc1ccc(-c2ccc3oc(N4Cc5ccccc5C4)nc3c2)cc1OC`: 13 nM.
Regarding `Cn1ccc2cc(-c3ccc4oc(N5Cc6ccncc6C5)nc4c3)ccc21`, the IC50 in assay [2] turned out to be 121 nM.
As for `C[C@@H]1CN(c2nc3cc(-c4ccc5c(ccn5C)c4)ccc3o2)C[C@H](C)O1`, 168 nM corresponded to half-maximal inhibition in assay [2] (IC50).
Regarding `Cn1ncc2cc(-c3ccc4oc(NC5CCCCC5)nc4c3)ccc21`, in assay [2], it took 61 nM to reach half-maximal inhibition (IC50).
In turn, `Cn1ncc2c(-c3ccc4oc(N5Cc6ccccc6C5)nc4c3)cccc21` yielded an IC50 in assay [2] of 3.2 nM.
`Cn1ccc2cc(-c3ccc4oc(N5CCc6ccccc6C5)nc4c3)ccc21` gave an IC50 in assay [2] of 55 nM.
Turning to `COc1cc(-c2ccc3oc(N4Cc5ccccc5C4)nc3c2)ccn1`, 10 nM corresponded to half-maximal inhibition in assay [2] (IC50).
The molecule `Cn1ccc2cc(-c3ccc4oc(Nc5ccc(F)cc5)nc4c3)ccc21` registered an IC50 in assay [2] of 99 nM.
Turning to `Cn1ncc2cc(-c3ccc4oc(N5Cc6ccccc6C5)nc4c3)ccc21`, the IC50 in assay [2] amounted to 1.2 nM.
`COc1ccc(Nc2nc3cc(-c4ccc5c(ccn5C)c4)ccc3o2)cc1` registered an IC50 in assay [2] of 280 nM.
The molecule `c1cc2c(ccn2C2COC2)cc1-c1ccc2oc(NC3CCCCC3)nc2c1` returned an IC50 in assay [2] of 579 nM.
`Cn1ccc2cc(-c3ccc4oc(NC5CCCCC5)nc4c3)ccc21`: in assay [2], the IC50 turned out to be 911 nM.
`Cn1ccc2cc(-c3ccc4oc(Nc5ccccn5)nc4c3)ccc21` gave an IC50 in assay [2] of 186 nM.
Same read-out and setting: next, `c1ccc(-c2ccc3oc(NC4CCCCC4)nc3c2)cc1`: over 1000 nM; `COc1cccc(-c2ccc3oc(N4Cc5ccccc5C4)nc3c2)c1`: 28 nM; `NC(=O)Cn1ccc2cc(-c3ccc4oc(NC5CCCCC5)nc4c3)ccc21`: 214 nM.
On to `O=C(Nc1ccccc1)N1CCC(Cc2cnc3ccccc3c2)CC1`, for which the IC50 is 66 nM in assay [3], 17 nM in assay [4] and 0.8 nM in assay [5].
The molecule `Cn1ccc2cc(-c3cccc4nc(N5Cc6ccccc6C5)oc34)ccc21` gave an IC50 in assay [2] of over 1000 nM.
For `CN(c1ccccc1)c1nc2cc(-c3ccc4c(ccn4C)c3)ccc2o1`, the IC50 in assay [2] worked out at 68 nM.
In assay [2], `Cn1ccc2cc(-c3ccc4oc(N5CCNCC5)nc4c3)ccc21` gave an IC50 of over 1000 nM.
In the case of `c1ccc2c(c1)CN(c1nc3cc(-c4ccc5nccn5c4)ccc3o1)C2`, the IC50 in assay [2] is 14 nM.
On the same count and under the same terms, the same measure for `c1cnc2ccc(-c3ccc4oc(NC5CCCCC5)nc4c3)cc2c1`: over 1000 nM.
As to `Cn1ncc2c(-c3ccc4oc(NC5CCCCC5)nc4c3)cccc21`, in assay [2], the IC50 was 52 nM.
As to `Cn1ccc2cc(-c3ccc4oc(N5Cc6ccccc6C5)nc4c3)ccc21`, the IC50 in assay [3] came out at 423 nM; in assay [1], 95 nM; in assay [4], 413 nM; in assay [2] it was 12 nM; in assay [5], 42 nM.
Turning to `Cn1ccc2cc(-c3ccc4oc(N5CCOCC5)nc4c3)ccc21`, the IC50 in assay [2] came out at 784 nM.
In assay [2], `COc1ccc(-c2ccc3oc(NC4CCCCC4)nc3c2)cc1C` registered an IC50 of 228 nM.
Regarding `NC(=O)c1cccc(-c2cccc(OC(=O)NC3CCCCC3)c2)c1` [URB-597], the half-inhibitory concentration (IC50) was determined as 26 nM in assay [3] and 0.8 nM in assay [5].
As to `Cn1ccc2cc(-c3ccc4oc(N5CCn6cccc6C5)nc4c3)ccc21`, it took 42 nM to reach half-maximal inhibition in assay [2] (IC50).
`Cn1ccc2cc(-c3ccc4oc(N5CCN(c6ccccc6)CC5)nc4c3)ccc21` had an IC50 in assay [2] of 63 nM.
For the molecule `CCn1ccc2cc(-c3ccc4oc(NC5CCCCC5)nc4c3)ccc21`, the IC50 in assay [2] worked out at 207 nM.
